Source: ChEMBL document CHEMBL1132788, “Analogues and derivatives of ciproxifan, a novel prototype for generating potent histamine H3-receptor antagonists” (Bioorg Med Chem Lett, 2000)

Experiments:
[1] = target: Histamine H3 receptor (Mus musculus) (UniProt P58406); test: In vivo Histamine H3 receptor antagonism, dose required to increase in N-t-methylhistamine levels in Swiss mice brains 90 min after p.o. administration; format: functional, organism-based; conditions: Brain
Histamine H3 receptor = Histamine H3 receptor (Rattus norvegicus, UniProt Q9QYN8); test: In vitro inhibitory activity against Histamine H3 receptor for K+ evoked depolarization-induced release of [3H]histamine from synaptosomes of rat cerebral cortex; format: subcellular, Brain
Chain of Histamine H3 receptor (Q9QYN8 whole entry): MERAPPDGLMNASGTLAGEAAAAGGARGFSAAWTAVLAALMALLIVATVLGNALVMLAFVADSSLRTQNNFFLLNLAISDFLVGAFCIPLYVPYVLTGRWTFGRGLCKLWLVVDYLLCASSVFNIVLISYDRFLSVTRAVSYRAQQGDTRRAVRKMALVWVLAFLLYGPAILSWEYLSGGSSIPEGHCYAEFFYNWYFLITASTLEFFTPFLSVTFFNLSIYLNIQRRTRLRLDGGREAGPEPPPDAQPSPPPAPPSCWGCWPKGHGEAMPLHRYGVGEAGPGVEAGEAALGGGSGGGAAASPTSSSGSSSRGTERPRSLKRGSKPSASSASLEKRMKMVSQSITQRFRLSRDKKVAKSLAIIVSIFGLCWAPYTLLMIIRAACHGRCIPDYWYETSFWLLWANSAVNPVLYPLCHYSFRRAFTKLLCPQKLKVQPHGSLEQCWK

Chain of Histamine H3 receptor (Mus musculus) (P58406 whole entry): as the sequence (Q9QYN8 whole entry) above, with T15A, A286T, A290G, R387H, I389V counted along it

SMILES | ED50 [1] | Ki (Histamine H3 receptor)
O/N=C(/c1ccc(OCCCc2c[nH]cn2)cc1)C1CC1 | 0.21 mg/kg | 
ClCC/C=C/c1ccc(OCCCc2c[nH]cn2)cc1 | 0.72 mg/kg | 
OC(c1ccc(OCCCc2c[nH]cn2)cc1)C1CC1 (stereo not given) | 0.18 mg/kg | 0.58 nM
O=C(c1ccc(OCCCc2c[nH]cn2)cc1)C1CC1 | 0.14 mg/kg | 
O=C(CCCO)c1ccc(OCCCc2c[nH]cn2)cc1 | > 10 mg/kg | 
CCCCc1ccc(OCCCc2c[nH]cn2)cc1 | 0.96 mg/kg | 
O=C(CCCN1CCCC1)c1ccc(OCCCc2c[nH]cn2)cc1 | > 10 mg/kg | 
c1nc(CCCOc2ccc(CC3CC3)cc2)c[nH]1 | > 10 mg/kg | 
O=C(c1ccc(OCCCCc2cnc[nH]2)cc1)C1CC1 |  | 113 nM
CCCCc1ccc(OCCCc2cnc[nH]2)cc1 |  | 60 nM
O=C(c1ccc(OCc2c[nH]cn2)cc1)C1CC1 | 2.8 mg/kg | > 500 nM
CC(C)(C)CCC#C[C@@H]1C[C@H]1c1c[nH]cn1 | 0.12 mg/kg | 
O=C(c1ccc(OCCc2c[nH]cn2)cc1)C1CC1 | 0.21 mg/kg | 2.1 nM
OCCCC1(c2ccc(OCCCc3c[nH]cn3)cc2)OCCO1 | > 10 mg/kg | 40 nM
O=C(c1ccc(OCCCCc2c[nH]cn2)cc1)C1CC1 | > 10 mg/kg | 
O=C(CCCO)c1ccc(OCCCc2cnc[nH]2)cc1 |  | 30 nM
